In patent publication US8299096B2, “Method for treating pulmonary diseases using rho kinase inhibitor compounds” (priority 2008, dated 2012):

system: rat tracheal rings; assay: Tracheal relaxation assay, carbachol precontracted rings; settings: 10 μM compound, 1 μM carbachol precontracted rat trachea rings
Procedure: Trachea were excised, cleaned of connective tissue and cut into cylindrical segments of 2-3 mm length. Two stainless steel wires were guided through the lumen of the tracheal ring. One wire was fixed in the tissue bath and the other was connected to a force transducer via surgical silk. […] Indomethacin (1 μM), a cyclooxygenase inhibitor, was added to the Krebs buffer and was present throughout the experiments. Contractile tensions were measured using an isometric force transducer (Grass Instruments) and signals were analyzed using specialized software (Chart v5.5, ADInstruments). The preparations were allowed to equilibrate at a resting tension of 0.3 to 0.5 gm prior to two challenges with 60 mM KCl to assess tissue viability. After washing, tissues were treated with 1 μM carbachol for 10 to 15 minutes to induce a contractile response. Test Compounds were added cumulatively to the bath every 30 minutes and reductions in tension were recorded. Basal tension was subtracted from all values and data were reported as a percentage of the maximal carbachol-induced contraction. Data were fit to the Hill equation using GraphPad Prism v5 software.

In the case of `O=S(=O)(c1cccc2cnccc12)N1CCCNCC1` [fasudil], the “Percentage of carbachol-induced contraction at 10 μM compound, Avg %” value is reported as “least efficacious”.

same assay, conditions: carbachol precontracted tissue

With `O=S(=O)(c1cccc2cnccc12)N1CCCNCC1` [fasudil] the “IC50, tracheal ring relaxation” value was “could not be obtained”.

system: ovalbumin-sensitized mice; assay: Bronchodilator assay in ovalbumin-sensitized mouse model of asthma (Penh); assay type: in vivo; settings: oral doses
Procedure: Male BALB/c mice were ordered from Charles River Laboratories (Raleigh, N.C.). The animals were approximately 19 to 21 grams at time of receipt. Upon arrival, the animals were randomized into groups of five males per cage and assigned to a dosing group. Animals were quarantined for 7 days under test conditions. They were observed daily for general health status and ability to adapt to the water bottles.
Animals were sensitized on day 0 and 14 of study by an intraperitoneal injection with 20 μg of ovalbumin (ova) and 2.0 mg aluminum hydroxide (alum) which initiates the development of a specific T-helper (Th) cells type 2 resulting in asthmatic animals. One group of animals received an injection of saline to use as non-asthmatic control animals. All animals were challenged with aerosolized 1% ova once daily for 25 minutes on days 28, 29, and 30 (Zosky, et al. Respiratory Research, 2004; 5:15). Aerosol challenge consists of using an Aerogen Aeroneb nebulizer and controller with a particle size of 4-6 μm mass median aerodynamic diameter (MMAD) with a distribution of 400 μl per minute. This aerosol challenge is necessary to target the Th2-driven allergic inflammation in the lower airways.
The test compounds and the control vehicle were administered to animals on the day of airway hyperreactivity evaluation 30 minutes to 1 hour before the evaluation to determine the bronchodilator effects of the compounds according to the bronchodilator dosing paradigm (FIG. 3A). Compounds were administered p.o. (orally), i.p. (intraperitoneally) at 15 μMol/kg unless otherwise noted (Table 4). Alternatively, compounds were administered i.t. (intratracheally) at varying doses as shown (FIG. 3B). On day 32 of the experiment, airway hyperreactivity was evaluated by placing conscious, unrestrained animals in a whole body plethysmometer (Buxco Wilmington, N.C.) and exposing them to escalating doses of nebulized methacholine, a known bronchial constrictor which acts through the muscarinic receptors of the lungs, (doses: […]-50 mg/ml). Exposure to the methacholine doses consisted of a 3 minute period during which a nebulizer was aerosolizing the methacholine and an additional 3 minute period following the cessation of nebulization. Over this 6 minute period, the plethysmometer monitors and generates numerical values for all parameters of the breath pattern. Enhanced pause (Penh), a unitless index of airway hyperreactivity, is derived from the expiratory side of the respiratory waveform measured via the plethysmograph and is used as an indirect measure of airway resistance and hyperreactivity. […] Following the methacholine dose response, all animals were anesthetized, bled and euthanized.
Within each experiment, a mouse was given a single compound and exposed to increasing doses of methacholine [0 (baseline), 0.375, 0.75, 1.5, 3, 6, 12, 25, 50 mg/ml]. The Penh value at each of the dose levels of methacholine represents the 6-minute average response. Change from baseline (CFB) in Penh was calculated at each methacholine dose and the area under the curve (AUC) for these CFB values was calculated using the trapezoidal rule. This same approach was applied for each mouse across multiple experiments.
For statistical analyses, a linear mixed-effects model where the response was the log 10 transformed value of AUC described above was used. Data from equal experimental conditions across experiments performed on different days were pooled for statistical analysis and data reporting. The various compounds were compared adjusting for the log 10-transformed baseline value of Penh and the chamber (1 of 10) of the plethysmometer each mouse was contained in during an experiment. A random intercept for each experiment was assumed to account for possible similarities of the results obtained from a given experiment (i.e., as a “blocking effect”).
For Table 4 and Table 5, Penh values are reported as log 10 transformed AUC values. […]

With `c1cc2cc(CN3CCC[C@@H](Nc4ccc5[nH]ncc5c4)C3)ccc2o1` [Compound 1.131] the “Reduction in airway hyperresponsivness” value was “statistically significant reduction”.

system: ovalbumin-sensitized mice; assay: Anti-inflammatory assay in ovalbumin-sensitized mouse model of asthma (BALF cells and cytokines); assay type: in vivo; settings: dosed orally to day 31, anti-inflammatory dosing paradigm
Text: Mouse model of asthma via ovalbumin sensitization was created as described in Example 5. The anti-inflammatory dosing paradigm (FIG. 4) was utilized to evaluate the anti-inflammatory effects of experimental compounds. The anti-inflammatory dosing paradigm consists of dosing the animals once a day starting on day 27 and finishing on either day 30 or 31 (1 hr prior to the aerosolized ovalbumin challenges on days 28 to 30) but not on day 32 when hyper-reactivity evaluation occurs.
Bronchoalveolar lavage fluid (BALF) was collected by infusing 3.0 ml of saline with 10% fetal calf serum into the lungs via the trachea and then withdrawing the fluid. The total amount of cells/ml of BALF fluid was determined via manual cell count on hemocytometer. The BALF was centrifuged, supernatant removed and analyzed for cytokine concentrations as described below, and cell pellet reconstituted in 500 μL of fluid. Cytospin slides were prepared from the cell pellet using 100 μL of fluid and spinning samples for 5 minutes at 5000 rpms in a cytospin centrifuge. Following Hema3 stain, relative percentages of individual leukocytes were determined on a 200 cell count for each sample. The final concentration of individual leukocyte cell types per ml of BALF was determined by multiplication of the relative percentage of individual leukocytes with the total amount of cells/ml of BALF fluid.
The concentrations of cytokines in the BALF samples were determined using commercially available Bio-plex kits (Bio-Rad) for the detection of mouse IL-5, IL-13, and Eotaxin. The analysis of cytokine levels was measured using the Bio-Plex 200 (Bio-Rad) system according to the manufacturer's instructions.

In the case of `c1cc2cc(CN3CCC[C@@H](Nc4ccc5[nH]ncc5c4)C3)ccc2o1` [Compound 1.131], the “Airway eosinophil infiltration (eosinophils per ml of BALF)” value is reported as “reduced”.

system: ovalbumin-sensitized mice; assay: Prevention of airway hyperreactivity development, anti-inflammatory dosing paradigm (Penh); assay type: in vivo, mouse; settings: anti-inflammatory dosing paradigm

For `CC(C)(C)NCC(O)c1ccc(O)c(CO)c1` (stereo not shown) [Salbutamol, reference compound], the “Efficacy using the anti-inflammatory dosing paradigm” value was “ineffective”.

same assay, conditions: oral, 15 μMol/kg once a day during days 27 to 31

In the case of `c1cc2cc(CN3CCC[C@@H](Nc4ccc5[nH]ncc5c4)C3)ccc2o1` [Compound 1.131], the “Prevention of airway hyperreactivity to metacholine on Day 32” value is reported as “prevention of airway hyperreactivity”.

system: not listed separately; assay: Compound plasma concentrations in mice at 15 min post administration; assay type: in vivo, mouse; settings: mouse plasma, 15 minutes, oral
Procedure: Additionally, compound concentrations were determined in the plasma and lungs of male, ovalbumin-sensitized, Balb/c mice from a murine model of asthma. Test compounds were formulated in water or 1% polysorbate 80 and dosed at 15 μmol/kg for intraperitoneal (IP) or oral (PO) administration or formulated for intratracheal (IT) administration and dosed at 5 μmol/kg, which directly targets the lungs. Following completion of the in vivo study, mice were euthanized and blood and plasma collected approximately 2.5-3 hours post administration of test compound for bronchodialator (BD) studies and 24 hours post administration for anti-inflamatory (AI) studies. Lungs were homogenized in Matrix A lysing tubes using a FastPrep 24 tissue and cell homogenizer (MP Biomedicals, Solon, Ohio). Both plasma samples and lung extracts were assayed for compound concentrations using an on-line, solid phase extraction LC/MS/MS system.

With `c1cc2cc(CN3CCC[C@@H](Nc4ccc5[nH]ncc5c4)C3)ccc2o1` [Compound 1.131] the “Detection in mouse plasma 15 minutes after oral dosing” value was “readily detectable”.

same assay, conditions: mouse; mice, plasma, 15 min post administration (oral dosing), mean of n = 3 mice; read-out: Plasma Mean Concentration

Compared with `Cc1ccc(CN2CCC[C@H](Nc3ccc4[nH]ncc4c3)C2)c(C)c1` [Compound 1.155], `Cc1cccc(CN2CCC[C@@H](Nc3ccc4[nH]ncc4c3)C2)c1C` [Compound 1.172] is 3.4-fold higher in concentration at 15 min: 32.4 nM for the first, 111 nM for the second.

Compared with `O=C(COc1cccc(CN2CCC[C@@H](Nc3ccc4[nH]ncc4c3)C2)c1)N1CCOCC1` [Compound 1.127], `OCCOc1cccc(CN2CCC[C@@H](Nc3ccc4[nH]ncc4c3)C2)c1` [Compound 1.092] is 3.1-fold lower in concentration at 15 min: 980 nM for the first, 314 nM for the second.

Compared with `c1cc(CN2CCC[C@@H](Nc3ccc4[nH]ncc4c3)C2)cc(C2CC2)c1` [Compound 1.202], `c1cc(C2CC2)ccc1CN1CCC[C@H](Nc2ccc3[nH]ncc3c2)C1` [Compound 1.185] is 7.8-fold higher in concentration at 15 min: 130 nM for the first, 1020 nM for the second.

`CS(=O)(=O)c1cccc(CN2CCC[C@H](Nc3ccc4[nH]ncc4c3)C2)c1` [Compound 1.182] and `CN(c1cccc(CN2CCC[C@H](Nc3ccc4[nH]ncc4c3)C2)c1)S(C)(=O)=O` [Compound 1.198] are within 1.5-fold of each other in concentration at 15 min: 452 nM for the first, 643 nM for the second.

Compared with `c1cc2c(cc1CN1CCC[C@@H](Nc3ccc4[nH]ncc4c3)C1)OCCO2` [Compound 1.177], `c1cc2c(cc1CN1CCC[C@@H](Nc3ccc4[nH]ncc4c3)C1)CCO2` [Compound 1.246] is 2.1-fold higher in concentration at 15 min: 283 nM for the first, 587 nM for the second.

First: C=Cc1ccc(CN2CCC[C@@H](Nc3ccc4[nH]ncc4c3)C2)cc1 [Compound 1.208]
Second: C=Cc1ccc(CN2CCC[C@H](Nc3ccc4[nH]ncc4c3)C2)cc1 [Compound 1.229]
The concentration at 15 min of the first is 5.2-fold lower: 281 nM for the first, 1450 nM for the second.

First: c1cc2cc(CN3CCC[C@@H](Nc4ccc5[nH]ncc5c4)C3)ccc2[nH]1 [Compound 1.143]
Second: Fc1ccc(CN2CCC[C@@H](Nc3ccc4[nH]ncc4c3)C2)cc1 [Compound 1.146]
The concentration at 15 min of the first is 4.6-fold lower: 274 nM for the first, 1260 nM for the second.

`Clc1ccc(CN2CC[C@@H](Nc3cccc4cnccc34)C2)cc1` [Compound 2.027] and `Fc1ccc(CN2CC[C@@H](Nc3cccc4cnccc34)C2)cc1F` [Compound 2.062] are within 1.5-fold of each other in concentration at 15 min: 503 nM for the first, 660 nM for the second.

Compared with `Cc1ccc(CN2CC[C@@H](Nc3ccc4[nH]ncc4c3)C2)cc1` [Compound 1.242], `Cc1ccc(CN2CCC[C@H](Nc3ccc4[nH]ncc4c3)C2)cc1` [Compound 1.078] is 1.8-fold higher in concentration at 15 min: 580 nM for the first, 1020 nM for the second.

Compared with `O=C(COc1cccc(CN2CC[C@@H](Nc3cccc4cnccc34)C2)c1)N1CCOCC1` [Compound 2.043], `OCCOc1cccc(CN2CCC[C@H](Nc3cccc4cnccc34)C2)c1` [Compound 2.036] is 22-fold higher in concentration at 15 min: 60.8 nM for the first, 1340 nM for the second.

Going from `CC(=O)NCc1cccc(CN2CC[C@@H](Nc3cccc4cnccc34)C2)c1` [Compound 2.063] to `OCCOc1cccc(CN2CCC[C@@H](Nc3cccc4cnccc34)C2)c1` [Compound 2.034], the concentration at 15 min rises from 348 nM to 665 nM (1.9-fold).

First: CCSc1ccc(CN2CCC[C@H](Nc3ccc4[nH]ncc4c3)C2)cc1 [Compound 1.168]
Second: Brc1ccc(CN2CCC[C@H](Nc3ccc4[nH]ncc4c3)C2)cc1 [Compound 1.142]
The concentration at 15 min of the first is 1.8-fold higher: 588 nM for the first, 330 nM for the second.

Compared with `c1ccc(CN2CCC[C@H](Nc3ccc4[nH]ncc4c3)C2)cc1` [Compound 1.227], `c1ccc(CN2CCC[C@@H](Nc3ccc4[nH]ncc4c3)C2)cc1` [Compound 1.110] is 2.3-fold lower in concentration at 15 min: 1860 nM for the first, 792 nM for the second.

`c1cc(N[C@@H]2CCN(Cc3ccc4c(c3)OCCO4)C2)c2ccncc2c1` [Compound 2.056] and `CCOc1cccc(CN2CCC[C@@H](Nc3ccc4[nH]ncc4c3)C2)c1` [Compound 1.203] are within 1.5-fold of each other in concentration at 15 min: 1260 nM for the first, 1130 nM for the second.

Going from `Clc1cccc(CN2CCC[C@H](Nc3ccc4[nH]ncc4c3)C2)c1` [Compound 1.170] to `Clc1cccc(CN2CCC[C@@H](Nc3ccc4[nH]ncc4c3)C2)c1` [Compound 1.191], the concentration at 15 min falls from 639 nM to 260 nM (2.5-fold).

First: CC(=O)NCc1cccc(CN2CCC[C@@H](Nc3ccc4[nH]ncc4c3)C2)c1 [Compound 1.194]
Second: Oc1cccc(CN2CCC[C@@H](Nc3ccc4[nH]ncc4c3)C2)c1 [Compound 1.145]
The concentration at 15 min of the first is 3.3-fold higher: 355 nM for the first, 109 nM for the second.

Going from `NC(=O)Cn1ccc2ccc(CN3CCC[C@@H](Nc4ccc5[nH]ncc5c4)C3)cc21` [Compound 1.106] to `NC(=O)Cn1ccc2ccc(CN3CCC[C@H](Nc4ccc5[nH]ncc5c4)C3)cc21` [Compound 1.107], the concentration at 15 min falls from 441 nM to 211 nM (2.1-fold).

First: CSc1cccc(CN2CCC[C@@H](Nc3ccc4[nH]ncc4c3)C2)c1 [Compound 1.159]
Second: Brc1cccc(CN2CCC[C@H](Nc3ccc4[nH]ncc4c3)C2)c1 [Compound 1.183]
The concentration at 15 min of the first is 2.8-fold lower: 250 nM for the first, 708 nM for the second.

Going from `COc1ccc(CN2CC[C@@H](Nc3ccc4[nH]ncc4c3)C2)cc1` [Compound 1.245] to `COc1ccc(CN2CCC[C@@H](Nc3ccc4[nH]ncc4c3)C2)cc1` [Compound 1.226], the concentration at 15 min falls from 1520 nM to 526 nM (2.9-fold).

Going from `Fc1ccc(CN2CCC[C@H](Nc3ccc4[nH]ncc4c3)C2)cc1F` [Compound 1.072] to `Cc1ccc(CN2CCC[C@H](Nc3ccc4[nH]ncc4c3)C2)cc1O` [Compound 1.151], the concentration at 15 min falls from 1770 nM to 479 nM (3.7-fold).

`COc1ccc(CN2CCC[C@H](Nc3ccc4[nH]ncc4c3)C2)cc1NS(C)(=O)=O` [Compound 1.234] and `Brc1cccc(CN2CCC[C@@H](Nc3ccc4[nH]ncc4c3)C2)c1` [Compound 1.210] are within 1.5-fold of each other in concentration at 15 min: 240 nM for the first, 286 nM for the second.

Going from `OCCOc1cccc(CN2CCC[C@H](Nc3ccc4[nH]ncc4c3)C2)c1` [Compound 1.090] to `OCc1ccc(CN2CCC[C@H](Nc3ccc4[nH]ncc4c3)C2)cc1` [Compound 1.223], the concentration at 15 min rises from 5.9 nM to 12.8 nM (2.2-fold).

Compound `CC(C)c1ccc(CN2CCC[C@@H](Nc3ccc4[nH]ncc4c3)C2)cc1` [Compound 1.204] has a concentration at 15 min of 549 nM.
